Where two headings read alike, the source gives them in different places.
How the values were obtained:
H460 NSCLC cells = experiment: cells; conditions: read-out: LC50
H661 NSCLC cells = experiment: cells; conditions: read-out: LC50
human endo-exonuclease = experiment: Endo-exonuclease nuclease activity inhibition assay; assay type: biochemical
Description: The cultured cells were detached with trypsin-EDTA and the cell suspensions were centrifuged at 4° C. with a force of 700 g for 10 minutes. The cell pellets were washed twice with cold phosphate buffered saline (PBS). The cells were then resuspended and sonicated in 20 mM Tris-HCl, pH 7.5, containing 5 mM EDTA and 1 mM PMSF (buffer A). The resulting cell lysis suspensions were centrifuged at 4° C. at 10,000 g for 15 min. […] After washing extensively with buffer A, (i.e. until the A280 of the eluates were zero), the column was then eluted with buffer A containing 3.5 M MgCl2 to elute the endo-exonuclease. The eluted endo-exonuclease was dialyzed extensively against buffer A with at least two changes of buffer and one change of distilled water. The endo-exonuclease was then concentrated by lyophilization.
One unit of activity was defined as the amount of deoxyribonuclease that renders 1 μg of DNA acid-soluble in 30 min at 37° C. For the inhibition assay with the drugs, the drugs were added to the endo-exonuclease prior to the start of the nuclease reaction.

H520 NSCLC cells = experiment: cells; conditions: read-out: LC50
[1] = system: MCF-7 breast cancer cells; conditions: read-out: LC50; MCF-7, 2 day exposure
HT29 colon cancer cells [2] = conditions: read-out: LC50; HT29, 2 day exposure
HT29 colon cancer cells [3] = experiment: cells; conditions: Homo sapiens, read-out: LC50
[4] = system: MCF-7 breast cancer cells; experiment: cells; conditions: Homo sapiens, read-out: LC50
HeLa cells = experiment: Cell survival, clonogenic assay; assay type: cell-based, human; conditions: 1 week growth
[5] = system: normal primary human cells (human primary fibroblast cells); experiment: Cell survival, clonogenic assay; assay type: cell-based; conditions: same conditions (0.1 mM to 1 mM)
From the text: These cells are normal human skin fibroblasts.

cancer cells = experiment: Efficiency of drug combination at killing cancer cells; assay type: cell-based; conditions: FIG. 4; efficiency from LC50 ratios
[6] = system: Lewis lung carcinoma (M47) primary tumour
Description: Lewis Lung Carcinoma Cell Line and Cell Culture: The Lewis lung carcinoma clone, M47, is a metastatic model. […] For tumour induction, cells were washed three times with phosphate buffer solution. They were then re-suspended at a dilution of 1×10^6 cells/0.1 ml. Only cells where viability was >95% were used for in vivo studies.
The mouse strain used in this study was C57BL/10. After one-week of acclimatization, cells were transplanted into the mice subcutaneously, as a suspension of tumour cells. All animals were inoculated at the same site.
To measure the effect of drugs on the primary tumour, drug solutions were administered by intraperitoneal (ip) injection every two days. Animals were subjected, on a daily basis, to general examination. Tumour growth was monitored over time. To determine the effect of drugs on tumour metastasis, the tumours were allowed to reach a size of 0.5–1.0 cm^3. Mice were randomized into various groups and the drugs were then given by ip. At the end of each experiment, animals were sacrificed and autopsied. Tumours, organs or both were removed under sterile conditions. Tumours were weighed. Organs were examined for gross pathological changes and then fixed in formalin. Lungs were fixed in Bouin's fixative and lung surface metastases were counted using a stereomicroscope.
The Lewis lung carcinoma clone, M47, with a high metastatic potential to the lung was used. […] The cell used was confirmed to be free of mycoplasma. Cells were maintained in RPMI-1640 medium supplemented with 10% fetal bovine serum and 1% penicillin-streptomycin, under 5% CO2. Cells were then propagated and stocks of the same passages were established and stored in liquid nitrogen. Oncozyme studies were done with the same stock of cells and same passage number.
For tumour induction, cells were grown to 70% confluence in complete medium and then collected using trypsin-EDTA solution [0.05% trypsin 0.53 mM EDTA-4Na in HBSS without Ca++. Mg++, and NaHCO3; Celigro No. 25–052-Li]. Cells were then centrifuged and washed three times with phosphate buffer solution [D-PBS, Ca++ and Mg++free; Cellgro No. 21–031-LV], and resuspended at a dilution of 0.1 to 1×10^6 cells/0.1 ml. Viability was examined by trypan blue staining and only cells in which the viability was >95% were used for in vivo studies.
The mouse strain used in this study is C57BL/10 from Charles River Inc. Animals were housed 5 per cage and were fed a diet of animal chow and water ad libitum. After one week acclimatization, LLC cells were transplanted subcutaneously, as a suspension of tumour cells [2−5×10^5 viable cells per 0.1 ml], in the axillary region of the right flank. All animals were inoculated at the same site. Animals were subjected, on a daily basis, to general examination. Tumour growth was monitored every second or third day using calipers. Parameters measured were: tumour measured along the longest axis (length) and the perpendicular shortest axis (width) and the relative tumour volume (in cm^3) was calculated by the formula: [length (cm)×(width cm)^2] (approximately 10–15 days), mice were randomized into one of the following groups:
The conditions for this group were identical to the group used for the experiments on metastases with the exception that the primary tumour was not removed, and the animals were maintained until the tumours reached a large size that justified animal sacrifice, or the animals manifested a discomfort that justified their sacrifice (reduced mobility, severe respiratory symptoms, etc.).
Control animals were given the same volume of saline solution [0.9% sodium chloride]. The dose of each drug was normalized to body weight per animal.
(§1) The pentamidine and cisplatinum were injected by intraperitoneal injections. Adriamycin was injected intravenously.

[7] = system: Lewis lung carcinoma (M47) lung metastases; experiment: Lewis lung carcinoma lung metastases; assay type: in vivo, mouse (C57BL/10); conditions: for Number of Metastases/Lung: Blank 34 ± 3
From the text: All animals were inoculated at the same site.
Tumour growth was monitored over time. […] Tumours, organs or both were removed under sterile conditions. Tumours were weighed.
Animals were subjected to surgery to remove the primary tumour. The mice were lightly anesthetized with Forane. The skin overlying the tumour was cleaned with betadine and ethanols, in a laminar flow hood. A small skin incision (0.5–1 cm) was made using a sterile scalpel, and the tumour was carefully separated from the normal tissues (skin and muscle). Lewis Lung carcinoma cells (at early stage of growth; 1–3 weeks) are a well localized tumour and separation was easy to achieve without any significant damage to normal tissues. The tumour was removed, weighed and in some cases fixed for histopathology purposes. The wound was closed with surgical stainless steel clips (Autoclips; 9 mm; Clay Adams, Inc. Parsippany, N.J.). This site was further disinfected with betadine and the animal was housed as described earlier.
In this group, mice were randomized after surgery into a group of 5 per cage. Cages were randomly assigned to specific experimental groups. The mice were then labelled by numbers using the “ear punching” method. Mice were checked on a daily basis to ensure the absence of infection. Animals with discomfort were sacrificed immediately. For each experiment, an additional extra spared group of control mice was included to determine the optimal timing for sacrifice in order to obtain a significant number of well localized lung metastases. This group was subjected to the same experimental procedure as group 1 with the exception of drug treatment.
as §1
At the end of each experiment (a total of 5–8 weeks), animals were sacrificed by dislocation and autopsied. Tumours, organs or both were removed under sterile conditions [using a laminar flow hood]. Tumours were weighed. […] Lungs were fixed in 10% Bouin's fixative diluted in a formalin solution, and lung surface metastases were counted using a stereomicroscope at 4× magnification or a magnifying-glass, and in some cases lungs were embedded in paraffin wax according to standard procedures. Embedded tissues were used to confirm metastases and further examine histopathological changes.

[8] = Toxicity / maximal tolerable dose in non-tumour bearing mice; conditions: 100 mg/Kg ip, days 1, 3, 5, FIG. 8
Description: (§2) A preliminary study was conducted on non-tumour bearing mice to examine the maximal tolerable doses of pentamidine that can be used for antitumour studies. Three intraperitoneal injections (day 1, day 3, and day 5) were tested of 25, 50, 100 and 200 mg/Kg of body weight respectively.

[9] = mouse, in vivo, ip
Description: as §2

MCF7 cells = experiment: Cell survival, clonogenic assay; assay type: cell-based, human; conditions: 1 week growth
[10] = system: RIF-1 radiation-induced fibrosarcoma tumour; experiment: RIF tumour mouse model, polymer implant

For `CC(=O)NCC(=O)O.CC(=O)NCC(=O)O.N=C(N)c1ccc(N=NNc2ccc(C(=N)N)cc2)cc1` [Berenil, berenil], the CC50 (H460 NSCLC cells; H460, 2 day exposure) was greater than 4000 µM, the CC50 (H661 NSCLC cells; H661, 2 day exposure) was greater than 4000 µM and the “Percent of Inhibition of endo-exonuclease activity” value (human endo-exonuclease; 2 mM) was 17%. The CC50 (H520 NSCLC cells; H520, 2 day exposure) was greater than 4000 µM, the CC50 [1] was 3000 µM and the CC50 (HT29 colon cancer cells [2]) was greater than 4000 µM.

In the case of `Cn1cc(NC(=O)c2cc(NC(=O)c3cc(NC=O)cn3C)cn2C)cc1C(=O)NCCC(=N)N` [Distamycin A, distamycin A], the CC50 (H460 NSCLC cells; H460, 2 day exposure) is reported as greater than 2000 µM, the CC50 (H661 NSCLC cells; H661, 2 day exposure) is reported as greater than 2000 µM and the “Percent of Inhibition of endo-exonuclease activity” value (human endo-exonuclease; 38 μM) is reported as 30%. The CC50 (H520 NSCLC cells; H520, 2 day exposure) was greater than 2000 µM, the CC50 [1] was 1520 µM and the CC50 (HT29 colon cancer cells [2]) was greater than 2000 µM.

`COc1cc([C@@H]2c3cc4c(cc3[C@@H](O[C@@H]3O[C@@H]5CO[C@@H](C)O[C@H]5[C@H](O)[C@H]3O)[C@H]3COC(=O)[C@H]23)OCO4)cc(OC)c1O` [Etoposide, etoposide] showed a CC50 (HT29 colon cancer cells [3]; HT-29, 48 h) of 700 µM, a CC50 (HT29 colon cancer cells [3]; HT-29, 96 h) of 400 µM and a CC50 (H460 NSCLC cells; Homo sapiens, NCI-H460, 48 h) greater than 34000 µM. The CC50 (H460 NSCLC cells; Homo sapiens, NCI-H460, 96 h) was greater than 34000 µM, the CC50 (H661 NSCLC cells; Homo sapiens, NCI-H661, 48 h) was 28000 µM and the CC50 (H661 NSCLC cells; Homo sapiens, NCI-H661, 96 h) was 15600 µM. The “Percent of Inhibition of endo-exonuclease activity” value (human endo-exonuclease; 50 μM) was 0%, the CC50 (H520 NSCLC cells; Homo sapiens, NCI-H520, 48 h) was greater than 34000 µM and the CC50 (H520 NSCLC cells; Homo sapiens, NCI-H520, 96 h) was greater than 34000 µM. The CC50 ([4]; MCF7, 48 h) was 1000 µM and the CC50 ([4]; MCF7, 96 h) was 1100 µM.

In the case of `CO[C@@]12[C@H](COC(N)=O)C3=C(C(=O)C(C)=C(N)C3=O)N1C[C@@H]1N[C@@H]12` [Mitomycin C, mitomycin C], the “Percent of Inhibition of endo-exonuclease activity” value (human endo-exonuclease; 50 μM) is reported as 0%.

For `N=C(N)c1ccc(OCCCCCOc2ccc(C(=N)N)cc2)cc1` [Pentamidine, pentamidine], the “Concentration at which compound began to kill the cancer cells” value (HeLa cells) was 0.1 mM, the Lethal concentration (HeLa cells) was 1 mM and the CC50 (HT29 colon cancer cells [3]; HT-29, 48 h) was 270 µM. For the same compound, the CC50 (HT29 colon cancer cells [3]; HT-29, 96 h) was 60 µM, the “Effect on survival of normal primary human cells” value [5] was “no effect” and the CC50 (H460 NSCLC cells; Homo sapiens, NCI-H460, 48 h) was 1340 µM. For the same compound, the CC50 (H460 NSCLC cells; Homo sapiens, NCI-H460, 96 h) was 160 µM, the “Efficiency at killing cancer cells of cisplatin combined with pentamidine versus cisplatin alone” value (cancer cells) was “up to 16,000 times” and the CC50 (H661 NSCLC cells; Homo sapiens, NCI-H661, 48 h) was 150 µM. For the same compound, the CC50 (H661 NSCLC cells; Homo sapiens, NCI-H661, 96 h) was 70 µM, the “Antitumour activity compared with cisplatin at 3–4 mg/Kg/ip” value ([6]; FIG. 13) was “as active as cisplatin” and the “Primary tumour effect, 50 mg/Kg pentamidine combined with adriamycin” value ([6]; FIG. 18) was “some beneficial effect”. For the same compound, the “Tumour response, combined with 3 mg/Kg cisplatin” value ([6]; FIGS. 14a and 14b) was “some animals showed a complete regression of the tumours”, the “Inhibition of cancer growth compared with cisplatinum” value ([6]; daily injection, FIG. 7) was “as effective in inhibiting the cancer growth as cisplatinum” and the “Most active dose on growth of LLC primary tumour” value ([6]; ip, p<0,01, FIGS. 10 to 15) was 50 mg/kg. For the same compound, the “Percent of Inhibition of endo-exonuclease activity” value (human endo-exonuclease; 25 μM) was 37%, the “Percent of Inhibition of endo-exonuclease activity” value (human endo-exonuclease; 50 μM) was 50% and the “Percent of Inhibition of endo-exonuclease activity” value (human endo-exonuclease; 100 μM) was 100%. The “Number of Metastases/Lung” value ([7]; 25 mg/kg) was 23 ± 3, the “Inhibition of lung metastases versus saline-treated control” value ([7]; 50 mg/Kg, p<0.001, FIG. 16) was “more than 50%” and the “Number of Metastases/Lung” value ([7]; 50 mg/kg) was 10 ± 2. For the same compound, the “Effect on metastases, 50 mg/Kg/ip pentamidine with 4 mg/kg/ip cisplatin” value ([7]; FIG. 17) was “enhanced effect”, the “Effect on metastases, 50 mg/Kg/ip pentamidine with 5 mg/kg adriamycin/iv” value ([7]; FIG. 20) was “some beneficial effect” and the “Effect on lung metastases” value ([7]; doses of 10–25 mg/Kg) was “no significant effect”. The “Reduction of lung metastases” value ([7]; highest dosage tested) was “reduced metastases in a dose dependant manner by a factor of three”, the “Most active dose on lung metastases” value ([7]; p<0.01) was 50 mg/kg and the CC50 (H520 NSCLC cells; Homo sapiens, NCI-H520, 48 h) was 240 µM. The CC50 (H520 NSCLC cells; Homo sapiens, NCI-H520, 96 h) was 130 µM, the “Acute toxicity (death)” value [8] was “died because of acute toxicity” and the CC50 ([4]; MCF7, 48 h) was 150 µM. For the same compound, the CC50 ([4]; MCF7, 96 h) was 80 µM, the Highest tolerated dose [9] was 50 mg/kg and the “Concentration at which compound began to kill the cancer cells” value (MCF7 cells) was 0.1 mM. For the same compound, the Lethal concentration (MCF7 cells) was 1 mM, the “Efficacy at slowing tumour growth” value ([10]; biodegradeable polymer tumour implant, 100 mm^3 RIF tumours, FIG. 5) was “intermediate in its efficacy at slowing tumour growth between the saline control and 5-fluorouracil” and the “Side effects in test mice” value ([10]; polymer implant plus radiation) was “no obvious signs of any side effects”. For the same compound, the “Tumour growth, combination with radiation” value ([10]; polymer implant plus radiation 24 hours after implant, FIG. 6) was “no significant tumour growth for a much longer period”.

In the case of `COc1cccc2c1C(=O)c1c(O)c3c(c(O)c1C2=O)C[C@@](O)(C(=O)CO)C[C@@H]3O[C@H]1C[C@H](N)[C@H](O)[C@H](C)O1` [adriamycin], the Mortality ([6]; 7.5 mg/Kg/iv, highest dose tested, FIG. 19) is reported as 100% and the “Antitumour effect on primary tumour” value ([6]; minimal dose of 5 mg/Kg iv) is reported as “potent antitumour effect”.
